Earlier results in patent publication US20020107236A1, “Methods of treating sexual dysfunction associated with hypertension” (priority 2000, published 2002).

System: male rats
Details: used for treatment of hypertensive disorder in male rats

CCCCc1nc(Cl)c(CO)n1Cc1ccc(-c2ccccc2-c2nn[nH]n2)cc1 [losartan]
preservation of sexual function: advantage in preservation of sexual function
